Data from patent US20250257055A1, “TERTIARY AMIDE DERIVATIVES SUBSTITUTED WITH 4-MEMBERED RING STRUCTURE” (Sumitomo Pharma Co., Ltd., priority 2024, published 2025).

Legend:
[1] = system: G-401 cells; experiment: Cell proliferation inhibition experiment using G-401 cells; format: cell-based; settings: Homo sapiens, 72 h, cultured for 3 days, CellTiter-Glo
In short: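 Malignant rhabdoid tumor-derived cells, grown in McCoy's 5A with 10% FBS, were seeded at 500 cells/well and dosed one day later (final DMSO 0.1%). After 3 days of culture at 37° C, viability was read by CellTiter-Glo luminescence.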

[2] = system: Kuramochi cells; experiment: Cell proliferation inhibition experiment using Kuramochi cells; format: cell-based; settings: 144 h, cultured for 6 days, CellTiter-Glo
In short: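 Ovarian cancer Kuramochi cells in RPMI-1640 with 10% FBS, seeded at 500 cells/well and dosed one day later at 0.1% final DMSO. After 6 days of culture at 37°C, 5% CO2, viability read by CellTiter-Glo luminescence.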

[3] = Pharmacokinetic study in mice; format: in vivo; settings: for AUC / clearance / half-life / Vd / Cmax: female, BALB/c (BALB/cAnN CrlCrlj), mouse, plasma; for Vd: read-out: Vdss
In short: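 Female 7-week-old BALB/c mice were dosed 1 mg/kg intravenously (50% PEG, 0.01 mol/L HCl) or 10 mg/kg orally (0.5% methylcellulose). Plasma was sampled from 5 or 15 min up to 24 hr, and concentrations were quantified by LC-MS against an internal-standard calibration curve.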

[4] = molecular target: recombinant p300 (Homo sapiens (Human), UniProt Q09472); experiment: HAT activity inhibition experiment (SensoLyte HAT(p300) Assay Kit); format: biochemical; settings: recombinant p300, histone H3 peptide, acetyl CoA
In short: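 Recombinant human p300 preincubated with compound 10 min at room temperature, then acetyl-CoA and histone H3 peptide added and reacted 30 min at 37 °C. After stop, developer added for 30 min at room temperature in the dark; fluorescence read at Ex 389/Em 513 nm.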

Chain of recombinant p300 (Q09472 whole entry): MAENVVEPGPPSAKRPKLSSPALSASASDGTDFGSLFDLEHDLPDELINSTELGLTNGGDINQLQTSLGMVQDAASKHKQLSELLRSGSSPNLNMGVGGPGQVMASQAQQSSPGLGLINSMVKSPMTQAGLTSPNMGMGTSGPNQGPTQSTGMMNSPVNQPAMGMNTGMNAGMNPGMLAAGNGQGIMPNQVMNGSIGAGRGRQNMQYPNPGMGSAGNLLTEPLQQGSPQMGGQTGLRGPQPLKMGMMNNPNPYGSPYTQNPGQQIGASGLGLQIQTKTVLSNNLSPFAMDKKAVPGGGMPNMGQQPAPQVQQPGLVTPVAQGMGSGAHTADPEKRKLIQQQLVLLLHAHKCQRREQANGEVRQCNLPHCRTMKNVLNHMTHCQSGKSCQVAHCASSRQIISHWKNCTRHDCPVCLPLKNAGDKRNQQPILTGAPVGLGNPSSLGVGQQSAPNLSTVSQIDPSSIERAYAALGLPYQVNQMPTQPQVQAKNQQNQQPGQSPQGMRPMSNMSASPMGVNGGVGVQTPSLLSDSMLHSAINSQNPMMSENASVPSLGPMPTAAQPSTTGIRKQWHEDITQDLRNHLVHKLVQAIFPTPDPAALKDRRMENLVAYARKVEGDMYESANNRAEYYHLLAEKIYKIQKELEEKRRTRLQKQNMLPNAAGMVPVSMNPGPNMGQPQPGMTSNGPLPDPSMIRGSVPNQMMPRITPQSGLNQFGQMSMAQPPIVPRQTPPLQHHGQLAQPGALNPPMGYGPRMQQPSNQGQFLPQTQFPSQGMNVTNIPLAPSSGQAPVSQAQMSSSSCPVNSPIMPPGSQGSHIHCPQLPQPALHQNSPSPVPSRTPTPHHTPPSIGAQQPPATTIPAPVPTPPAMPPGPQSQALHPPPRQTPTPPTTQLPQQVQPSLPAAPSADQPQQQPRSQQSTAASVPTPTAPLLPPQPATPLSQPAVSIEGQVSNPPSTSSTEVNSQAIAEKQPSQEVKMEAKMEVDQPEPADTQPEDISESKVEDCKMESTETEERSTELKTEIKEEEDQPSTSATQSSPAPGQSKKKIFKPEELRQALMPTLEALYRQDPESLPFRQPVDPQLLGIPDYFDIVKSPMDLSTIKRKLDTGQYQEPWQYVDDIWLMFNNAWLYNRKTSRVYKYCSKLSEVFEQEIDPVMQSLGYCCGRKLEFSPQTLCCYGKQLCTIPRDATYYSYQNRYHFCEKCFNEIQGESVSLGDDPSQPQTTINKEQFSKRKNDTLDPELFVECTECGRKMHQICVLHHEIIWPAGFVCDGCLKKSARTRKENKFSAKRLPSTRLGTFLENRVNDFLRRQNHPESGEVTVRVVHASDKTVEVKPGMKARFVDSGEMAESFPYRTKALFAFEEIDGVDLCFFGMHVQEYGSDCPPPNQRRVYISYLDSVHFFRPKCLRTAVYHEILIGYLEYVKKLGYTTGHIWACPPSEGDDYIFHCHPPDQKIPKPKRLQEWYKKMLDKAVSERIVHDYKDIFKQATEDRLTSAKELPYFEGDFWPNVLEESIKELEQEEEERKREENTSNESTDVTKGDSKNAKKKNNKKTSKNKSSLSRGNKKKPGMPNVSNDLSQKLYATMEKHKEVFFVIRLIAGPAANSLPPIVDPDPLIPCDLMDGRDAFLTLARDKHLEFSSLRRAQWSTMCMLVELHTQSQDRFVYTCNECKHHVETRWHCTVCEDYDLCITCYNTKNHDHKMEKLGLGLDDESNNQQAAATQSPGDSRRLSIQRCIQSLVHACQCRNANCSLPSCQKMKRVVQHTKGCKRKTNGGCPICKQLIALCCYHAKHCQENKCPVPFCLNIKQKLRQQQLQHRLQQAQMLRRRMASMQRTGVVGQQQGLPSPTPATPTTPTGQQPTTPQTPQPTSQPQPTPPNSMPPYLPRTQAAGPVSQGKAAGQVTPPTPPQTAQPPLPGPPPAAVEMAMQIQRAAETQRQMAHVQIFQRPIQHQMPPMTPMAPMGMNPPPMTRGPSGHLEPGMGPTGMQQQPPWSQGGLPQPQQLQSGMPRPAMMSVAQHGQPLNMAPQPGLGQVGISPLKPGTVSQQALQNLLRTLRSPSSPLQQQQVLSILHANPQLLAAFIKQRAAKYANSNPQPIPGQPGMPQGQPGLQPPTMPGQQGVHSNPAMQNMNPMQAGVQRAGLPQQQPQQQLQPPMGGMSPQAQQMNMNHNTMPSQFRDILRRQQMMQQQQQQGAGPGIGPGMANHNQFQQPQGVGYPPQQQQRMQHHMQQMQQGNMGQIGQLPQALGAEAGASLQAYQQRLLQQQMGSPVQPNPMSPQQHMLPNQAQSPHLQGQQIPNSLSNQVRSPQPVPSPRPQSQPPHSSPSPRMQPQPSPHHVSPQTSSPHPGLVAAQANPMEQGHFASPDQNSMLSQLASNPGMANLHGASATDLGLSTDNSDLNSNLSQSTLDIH

| AUC ([3]; intravenous, 1 mg/kg) | clearance ([3]; intravenous, 1 mg/kg) | half-life ([3]; intravenous, 1 mg/kg) | Vd ([3]; intravenous, 1 mg/kg) | AUC ([3]; oral, 10 mg/kg) | Cmax ([3]; oral, 10 mg/kg) | BA ([3]; oral, 10 mg/kg) | IC50 [4] | SMILES | IC50 [1] | IC50 [2] |
| --- | --- | --- | --- | --- | --- | --- | --- | --- | --- | --- |
| 819 ng·h/mL | 19.9 mL/min/kg | 1.41 h | 1.3 L/kg | 8240 ng·h/mL | 6140 ng/mL | 100.6% | 0.9 nM | O=C1N[C@]2(C[C@@H](F)c3cc(-c4cnn(C5CN(C6COC6)C5)c4)ccc32)C(=O)N1CC(=O)N(Cc1ccc(F)cn1)C1(C(F)(F)F)COC1 [Example 7, 2-[(1′S,3′R)-3′-fluoro-5′-{1-[1-(oxetan-3-yl)azetidin-3-yl]-1H-pyrazol-4-yl}-2,5-dioxo-2′,3′-dihydrospiro[imidazolidine-4,1′-inden]-1-yl]-N-[(5-fluoropyridin-2-yl)methyl]-N-[3-(trifluoromethyl)oxetan-3-yl]acetamide] | 44 nM | 298 nM |
| 1690 ng·h/mL | 9.8 mL/min/kg | 4.1 h | 1.8 L/kg | 8400 ng·h/mL | 8140 ng/mL | 49.7% | 9 nM | O=C1N[C@]2(C[C@@H](F)c3cc(-c4cnn(C5CCN(C6COC6)CC5)c4)ccc32)C(=O)N1CC(=O)N(Cc1ccc(F)cn1)C1(C(F)(F)F)COC1 [Example 23, 2-[(1′S,3′R)-3′-fluoro-5′-{1-[1-(oxetan-3-yl)piperidin-4-yl]-1H-pyrazol-4-yl}-2,5-dioxo-2′,3′-dihydrospiro[imidazolidine-4,1′-inden]-1-yl]-N-[(5-fluoropyridin-2-yl)methyl]-N-[3-(trifluoromethyl)oxetan-3-yl]acetamide] | 82 nM | 591 nM |

More lines, now with the values behind:

| SMILES | AUC ([3]; intravenous, 1 mg/kg) | clearance ([3]; intravenous, 1 mg/kg) | half-life ([3]; intravenous, 1 mg/kg) | Vd ([3]; intravenous, 1 mg/kg) | AUC ([3]; oral, 10 mg/kg) | Cmax ([3]; oral, 10 mg/kg) | BA ([3]; oral, 10 mg/kg) | IC50 [4] | IC50 [1] | IC50 [2] |
| --- | --- | --- | --- | --- | --- | --- | --- | --- | --- | --- |
| CN1CC(N(Cc2ccc(F)cc2)C(=O)CN2C(=O)N[C@]3(C[C@@H](F)c4cc(-c5cnn(C)c5)ccc43)C2=O)(C(F)(F)F)C1 [Example 10, 2-[(1′S,3′R)-3′-fluoro-5′-(1-methyl-1H-pyrazol-4-yl)-2,5-dioxo-2′,3′-dihydrospiro[imidazolidine-4,1′-inden]-1-yl]-N-[(4-fluorophenyl)methyl]-N-[1-methyl-3-(trifluoromethyl)azetidin-3-yl]acetamide] | 491 ng·h/mL | 33.5 mL/min/kg | 1.16 h | 1.8 L/kg | 3480 ng·h/mL | 3240 ng/mL | 70.8% | 0.4 nM | 10 nM | 66 nM |
| CN1CC(N(Cc2ccc(F)cn2)C(=O)CN2C(=O)N[C@]3(C[C@@H](F)c4cc(-c5cnn(C)c5)ccc43)C2=O)(C(F)(F)F)C1 [Example 20, 2-[(1′S,3′R)-3′-fluoro-5′-(1-methyl-1H-pyrazol-4-yl)-2,5-dioxo-2′,3′-dihydrospiro[imidazolidine-4,1′-inden]-1-yl]-N-[(5-fluoropyridin-2-yl)methyl]-N-[1-methyl-3-(trifluoromethyl)azetidin-3-yl]acetamide] | 528 ng·h/mL | 31.1 mL/min/kg | 1.34 h | 1.6 L/kg | 1520 ng·h/mL | 1340 ng/mL | 28.8% | 1.7 nM | 36 nM | 320 nM |
| CN1CC(N(Cc2ccc(F)cn2)C(=O)CN2C(=O)N[C@]3(C[C@@H](F)c4cc(-c5cnn(C6COC6)c5)ccc43)C2=O)(C(F)(F)F)C1 [Example 24, 2-{(1′S,3′R)-3′-fluoro-5′-[1-(oxetan-3-yl)-1H-pyrazol-4-yl]-2,5-dioxo-2′,3′-dihydrospiro[imidazolidine-4,1′-inden]-1-yl}-N-[(5-fluoropyridin-2-yl)methyl]-N-[1-methyl-3-(trifluoromethyl)azetidin-3-yl]acetamide] | 313 ng·h/mL | 53 mL/min/kg | 1.15 h | 2.1 L/kg | 1470 ng·h/mL | 1470 ng/mL | 47.0% | 9.8 nM | 36 nM | 399 nM |
